How the values were obtained:
[1] = biological target: T1, Growth factor receptor-bound protein 2 (Homo sapiens, UniProt P62993); assay: In vitro binding affinity in extracellular ELISA-based assay for Grb2 SH2 domain
[2] = biological target: T1, Growth factor receptor-bound protein 2; assay: In vitro binding affinity in whole cells for Grb2 SH2 domain; type: cell-based
[3] = biological target: T1, Growth factor receptor-bound protein 2; assay: In vitro binding affinity for Grb2 SH2 domain
[4] = biological target: T1, Growth factor receptor-bound protein 2; assay: Inhibition of Grb2 SH2 domain binding to erbB-2
[5] = tested on: MDA-MB-453; assay: Inhibition of growth-factor-stimulated MDA-MB-453 breast cancer cell proliferation; type: functional, cell-based; conditions: Homo sapiens

Row | IC50 [1] [nM] | IC50 [2] [nM] | Kd [3] [nM] | IC50 [4] [nM] | IC50 [5] [nM] | SMILES
1 | 2 | ≤ 1000 |  |  |  | NC(=O)C[C@@H]1NC(=O)C2(CCCCC2)NC(=O)[C@@H](CC(=O)O)[C@@H](c2ccc(CP(=O)(O)O)cc2)/C=C/C[C@@H](Cc2cccc3ccccc23)CNC1=O
2 |  | ≥ 10000 |  |  |  | NC(=O)C[C@@H]1NC(=O)C2(CCCCC2)NC(=O)C[C@@H](c2ccc(CP(=O)(O)O)cc2)/C=C/C[C@@H](Cc2cccc3ccccc23)CNC1=O
3 |  |  | 0.075 |  |  | Cc1ccc2c(ccn2C[C@@H]2C/C=C/[C@H](c3ccc(CP(=O)(O)O)cc3)[C@H](CC(=O)O)C(=O)NC3(CCCCC3)C(=O)N[C@@H](CC(N)=O)C(=O)NC2)c1 [listing 1 of 2 here]
4 |  |  | 0.093 | ≤ 10 | 600 | Cc1ccc2c(ccn2C[C@@H]2C/C=C/[C@H](c3ccc(CP(=O)(O)O)cc3)[C@H](CC(=O)O)C(=O)NC3(CCCCC3)C(=O)N[C@@H](CC(N)=O)C(=O)NC2)c1 [listing 2 of 2 here]

From ChEMBL document CHEMBL1137084, “Synthesis of a 5-methylindolyl-containing macrocycle that displays ultrapotent Grb2 SH2 domain-binding affinity” (J Med Chem, 2004)
